Laboratory results from patent US20040248801A1, “Methods and reagents for regulation of cellular responses in biological systems” (priority 2000, published 2004).

Experiments:
B. subtilis 011085 = assay: B. subtilis capillary accumulation assay; assay type: cell-based, Bacillus subtilis; conditions: saccharide residue concentration; 37° C., 30 min
Source text: FIG. 4: Results of B. subtilis capillary accumulation assays using ROMP-derived glucose ligands (compound 5-7, Scheme 1). Buffer alone, glucose, or glucose-bearing compounds 5-7 were used as attractants in the capillary accumulation assay. Results are shown for glucose, compound 5, compound 6, and compound 7. Results are the average of at least four trials performed in duplicate and error bars represent single standard deviations.
To test the generality of the observed valency-dependent differences in chemotactic activities and to investigate the role of membrane permeability in responses to our ligands, chemotactic experiments in B. subtilis were conducted. B. subtilis is a gram-positive bacterium that, like gram-negative E. coli, is able to respond to saccharide chemoattractants. In the case of B. subtilis, the multivalent ligands can directly interact with saccharide-sensing receptors, without having to first traverse the outer membrane. Glucose is a chemoattractant for B. subtilis, but galactose is not. Glucose-carrying ligands (compounds 5-7, Scheme 1) were effective chemoattractants for B. subtilis as shown in capillary accumulation assays. […] Free chemoattractant signal glucose had maximal activity as a chemoattractant at 0.5 mM. In analogy to observations with E. coli, as the valency of the ligand increases, the saccharide residue concentration of maximum chemotaxis decreases. […] The results observed indicate that in evolutionarily divergent bacteria E. coli and B. subtilis, the valency of the attractant influences chemotactic response.
E. coli from an overnight culture were grown in LB to OD550 0.4-0.6, washed twice with E. coli chemotaxis buffer, and then partially permeabilized. Bacteria were resuspended in chemotaxis buffer to an OD550 0.1 and utilized in the capillary accumulation assay at 30° C. for 60 min, as previously described. […] Data was analyzed using the Q and Students tests.

E. coli = conditions: galactose as attractant [34]; cited from earlier work
E. coli AW405 = assay: video microscopy motion analysis of bacteria; assay type: cell-based, Escherichia coli; conditions: first 5-15 seconds after addition of attractant
Procedure: FIG. 2A: Results of video microscopy motion analysis experiments. Bacteria (Escherichia coli) were treated with buffer alone, galactose, or compound 1 or 3 (Scheme 1) at the indicated saccharide concentrations. The results represent the average from at least five independent experiments performed in triplicate. Error bars represent the deviation between per-second averages during the ten second interval.
Ligands functionalized with galactose such as monovalent ligand 1 and multivalent ligand 3, also serve as attractants in vivo. […] To observe the effects of synthetic ligands on tumbling frequency, E. coli were treated with galactose or galactose-bearing ligands, and bacterial motion was recorded and analyzed using the method of Sager et al.. The tumbling frequency was assessed by averaging the mean angular velocity of the paths obtained in the first 5-15 seconds after addition of attractant (FIG. 2A). […]
Partially permeabilized bacteria (25 μM EDTA for 3 min. at room temperature, then quench with 50 μM CaCl2) at an OD550 of 0.1 were placed under a cover slip supported by additional cover slips in the method of Sager et al.. […] The bacterial motion at 28° C. was recorded, and the paths were analyzed using the ExpertVision system. Paths derived from the first 5 to 15 seconds following the introduction of attractant were analyzed. […] Data were analyzed using the Q and Students tests.

Jurkat cells = assay: Jurkat cell aggregation; assay type: cell-based
Procedure: Percent of Jurkat cells present in aggregates is plotted against the treatment. […] Aggregate formation could be inhibited by addition of 50 mM methyl a-D-mannopyranoside (a man). Compounds 9-12 were added to a final mannose concentrations of 0.5 μM or 5 μM along with a final ConA concentration of 5 μg/mL. Results are the average of at least three independent experiments and error bars represent single standard deviations.
The ability of Con A clusters formed on ROMP-derived polymers to aggregate Jurkat cells was examined initially by light microscopy (see FIG. 10). […] For Jurkat cells, inhibition occurred even at low concentrations (0.5 μM) of monovalent ligands. […] Increasing the concentration of the multivalent ligand 10-fold (5 μM) abolished aggregation activity, consistent with site saturation. […] The ability of Con A complexed to multivalent ligands to interact with cell surfaces was thus tunable. […]
Cells were pelleted at 400×g, resuspended gently into 50 μL PBS, and then added to slides for visualization at 200× magnification on a Zeiss Axioscope outfitted with the appropriate filter set. Approximately 100-200 cells were counted from random fields on each day.
Clusters were scored for at least two cells in direct contact with each other and expressed as a percentage of the total number of objects (individual cells and clusters) counted. […]

His-tagged FGF-8b = target: T1, His-tagged FGF-8b (Homo sapiens, UniProt P55075); assay: cross-linking of FGF-8b (EGS, SDS-PAGE); assay type: binding; conditions: increasing ratio of polymer or heparin to FGF-8b
T1 sequence (P55075 23-215 isoform P55075-3 limits assumed): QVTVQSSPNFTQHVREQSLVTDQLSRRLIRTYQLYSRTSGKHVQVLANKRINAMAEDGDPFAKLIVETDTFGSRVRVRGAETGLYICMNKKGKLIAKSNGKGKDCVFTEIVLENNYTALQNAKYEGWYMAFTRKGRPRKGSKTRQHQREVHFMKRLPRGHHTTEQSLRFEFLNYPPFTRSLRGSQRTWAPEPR
Procedure: FIGS. 15A and B are illustrations of SDS-PAGE-gels (12%, under reducing conditions) comparing cross-linking of FGF-8b mediated by nickel-chelating polymer (FIG. 15A) and heparin (FIG. 15B). FGF-8b was incubated with polymer 6 for 1 hour at 0° C. The ratio of FGF-8b to polymer was as follows: a. 1:0.001, b. 1:0.003, c. 1:0.01, d. 1:0.03, e. 1:0.1, f. 1:0.3, f. 1:1. EGS (ethylene glycol bis[succinimidylsuccinate]) was added, and cross-linking was allowed to proceed for 5 minutes at 0° C. The reactions were quenched with ethanolamine (excess) for 1 hour at 0° C. Samples were concentrated under vacuum, analyzed on a 12% SDS-PAGE gel under reducing conditions, and detected with Coomassie staining.
Specifically, one of the functions of the oligosaccharide heparin in vitro is to oligomerize FGF ligand proteins and present them to the FGF receptor in a multivalent fashion. […]
FGF-8b was incubated with polymer 6 for 1 hour at 0° C. […] Samples were concentrated under vacuum, analyzed on a 12% SDS-PAGE gel under reducing conditions, and detected with Coomassie staining.
FGF-8b was incubated with heparin (Sigma, porcine intestinal mucosa, 17-19 kDa) for 1 hour at 0° C. […] Samples were concentrated under vacuum, analyzed on a 12% SDS-PAGE gel under reducing conditions, and detected with Coomassie staining. […]

For O=C(NCCOC1OC(CO)C(O)C(O)C1O)C1C[C@@H]2C=CC1C2 (stereo partly shown) [Compound 5], the “concentration of maximum activity as chemoattractant” value (B. subtilis 011085) was 1 mM.

For O=C[C@H](O)[C@@H](O)[C@@H](O)[C@H](O)CO [galactose, reference compound], the “number of E. coli accumulated” value (E. coli) is listed as 120,000 bacteria and the “mean angular velocity (tumbling frequency) after addition of attractant” value (E. coli AW405) is listed as “the mean angular velocity decreased”.

In the case of O=C[C@H](O)[C@@H](O)[C@H](O)[C@H](O)CO [glucose, reference compound], the “concentration of maximum activity as chemoattractant” value (B. subtilis 011085) is reported as 0.5 mM.

In the case of CO[C@H]1O[C@H](CO)[C@@H](O)[C@H](O)[C@@H]1O [methyl α-D-mannopyranoside], the “effect on Con A aggregate formation” value (Jurkat cells; 50 mM) is reported as “inhibited” and the “effect on Con A-mediated Jurkat cell aggregation” value (Jurkat cells; ligand 0.5 μM premixed with Con A 5 μg/mL) is reported as “inhibited aggregation”.

For heparin, the “cross-linking pattern of FGF-8b” value (His-tagged FGF-8b) was “pattern in cross-linking indicative of oligomerization due to a specific ligand/scaffold interaction”.
